Consider five compounds from patent US20240116883A1, “CANNABINOID DERIVATIVES AND THEIR USE THE TREATMENT OF INFLAMMATION AND/OR PAIN AND/OR OBESITY” (Yissum Research Development Company of The Hebrew …, priority 2020, published 2024).

SMILES strings stand for the structures.

The test system of experiment [1] is swelling, pain, TNF-alpha. Put plainly: biological activity assays of FIGS. 1-4 (swelling, pain, TNF-alpha, weight bearing). In kind it is in vivo, mice. As to conditions: summary of FIGS. 1-4; varied doses, compared to CBD/CBG. The protocol: After an additional 90 minutes, the mice were decapitated, and trunk blood was collected for determination of TNF-α levels. […]
TNF-α determination assay: TNF-α (pg/ml) in cell culture supernatants or in mouse blood plasma was determined by the “sandwich” ELISA technique. ELISA reagents were used according to the manufacturer's protocol (R & D Systems).

Experiment [2] concerns TPA induced erythema of mouse ear. Particulars: application of a 100 pg/ml solution; cited from earlier work.
Experiment [3] concerns phenylbenzoquinone writhing. As to conditions: mice; versus aspirin; cited from earlier work.
A further experiment has as its target cannabinoid receptor CB2 (Homo sapiens, UniProt P34972). As to conditions: cited from earlier work.

Chain of cannabinoid receptor CB2 (P34972 whole entry): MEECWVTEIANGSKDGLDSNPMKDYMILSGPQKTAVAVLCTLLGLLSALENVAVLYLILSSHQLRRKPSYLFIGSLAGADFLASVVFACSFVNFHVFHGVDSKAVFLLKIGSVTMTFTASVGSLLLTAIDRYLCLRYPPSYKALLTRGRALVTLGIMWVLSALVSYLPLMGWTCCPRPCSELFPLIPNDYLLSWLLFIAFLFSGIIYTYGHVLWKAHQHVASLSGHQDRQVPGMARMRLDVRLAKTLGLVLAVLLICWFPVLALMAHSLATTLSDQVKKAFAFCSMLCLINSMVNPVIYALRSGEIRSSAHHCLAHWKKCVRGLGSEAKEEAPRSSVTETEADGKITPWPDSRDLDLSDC

For the compound `CCCCCc1cc(O)c([C@@H]2C=C(C)CC[C@H]2C(C)C)c(O)c1C` [HUM-217, (1′S,2′S)-2′-isopropyl-3,5′-dimethyl-4-pentyl-1′,2′,3′,4′-tetrahydro-[1,1′-biphenyl]-2,6-diol], the anti-inflammatory activity result in experiment [1] was “notable anti-inflammatory activity”.

As for `C=C(C)[C@@H]1CCC(C)=C[C@H]1c1c(O)cc(CCCCC)cc1O` [CBD, Cannabidiol], the “inhibition of the inflammation response” value in experiment [2] was 92%. The “analgesic potency compared to aspirin” value in experiment [3] was “much more potent than aspirin”. Also, the “binding to CB2” value at cannabinoid receptor CB2 is reported as “does not bind”.

For `CCCCCc1cc(O)c(C/C=C(\C)CCC=C(C)C)c(O)c1C` [HUM-218, (E)-2-(3,7-dimethylocta-2,6-dien-1-yl)-4-methyl-5-pentylbenzene-1,3-diol], in experiment [1], the anti-inflammatory activity result is “notable anti-inflammatory activity”.

On to `C=C(C)[C@@H]1CCC(C)=C[C@H]1c1c(O)cc(CCCCC)c(C)c1O` [HUM-216, (1′R,2′R)-3,5′-dimethyl-4-pentyl-2′-(prop-1-en-2-yl)-1′,2′,3′,4′-tetrahydro-[1,1′-biphenyl]-2,6-diol], for which the anti-inflammatory activity entry in experiment [1] is given as “notable anti-inflammatory activity”.

As to `CCCCCCC(C)(C)c1cc(O)c(C/C=C(\C)CCC=C(C)C)c(OC)c1` [HUM-223, (E)-2-(3,7-dimethylocta-2,6-dien-1-yl)-3-methoxy-5-(2-methyloctan-2-yl)phenol], the anti-inflammatory activity result in experiment [1] is “notable anti-inflammatory activity”.
